Assay results: ChEMBL document CHEMBL1201862, “PubChem BioAssay data set” (2004)
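How tested: cells in 96-well plates exposed to compound for 48 hours at five concentrations. The concentration for 50% growth inhibition is given as GI50.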 Active and inactive are the calls of the source. No stated cut-off is given here; in the data, active = GI50 up to about 1.1 µM and inactive = higher.

How the values were obtained:
Experiment in all cases: DTP human tumour cell line panel, 48 h
A498 = system: A498
CCRF-CEM = system: CCRF-CEM
COLO 205 = system: COLO 205
EKVX = system: EKVX
HCT-15 = system: HCT-15
K562 = system: K562
MOLT-4 = system: MOLT-4
NCI-H226 = system: NCI-H226
NCI-H23 = system: NCI-H23
NCI-H522 = system: NCI-H522
OVCAR-3 = system: OVCAR-3
SF-268 = system: SF-268
SK-MEL-28 = system: SK-MEL-28
SK-MEL-2 = system: SK-MEL-2
SK-MEL-5 = system: SK-MEL-5
SK-OV-3 = system: SK-OV-3
TK-10 = system: TK-10
U-251 = system: U-251
UACC-62 = system: UACC-62
UO-31 = system: UO-31

Row | SMILES | GI50 (A498) | GI50 (CCRF-CEM) | GI50 (COLO 205) | GI50 (EKVX) | GI50 (HCT-15) | GI50 (K562) | GI50 (MOLT-4) | GI50 (NCI-H226) | GI50 (NCI-H23) | GI50 (NCI-H522) | GI50 (OVCAR-3) | GI50 (SF-268) | GI50 (SK-MEL-28) | GI50 (SK-MEL-2) | GI50 (SK-MEL-5) | GI50 (SK-OV-3) | GI50 (TK-10) | GI50 (U-251) | GI50 (UACC-62) | GI50 (UO-31)
1 | COc1cc2ccc(C(=O)O)cc2cc1OC | 49.7 µM (inactive) | > 100 µM (inactive) | > 100 µM (inactive) | > 100 µM (inactive) | > 100 µM | > 100 µM (inactive) | > 100 µM (inactive) | > 100 µM (inactive) | > 100 µM (inactive) | > 100 µM (inactive) | > 100 µM (inactive) | > 100 µM (inactive) | > 100 µM (inactive) | > 100 µM (inactive) | > 100 µM (inactive) | > 100 µM (inactive) | > 100 µM (inactive) | > 100 µM (inactive) | > 100 µM (inactive) | > 100 µM (inactive)
2 | CC(=O)O[C@H]1[C@@H](OC2CCCC2(c2ccccc2)c2ccccc2)O[N+]([O-])=C[C@@H]1c1ccccc1 (stereo not given in full) | 8.22 µM (inactive) | 3.19 µM (inactive) | 14.6 µM (inactive) | 13.4 µM (inactive) | 4.75 µM | 4.41 µM (inactive) | 2.63 µM (inactive) | 20.7 µM (inactive) | 11.9 µM (inactive) | 1.26 µM (inactive) | 8.87 µM (inactive) | 5.01 µM (inactive) | 2.55 µM (inactive) | 8.57 µM (inactive) | 8.02 µM (inactive) | 14.5 µM (inactive) | 9.71 µM (inactive) | 7.83 µM (inactive) | 4.66 µM (inactive) | 10.7 µM (inactive)
3 | COc1ccc(/C=N/N=C(\N)NO)c(OC)c1OC | 26.7 µM (inactive) | 20 µM (inactive) | 19.1 µM (inactive) | 16.6 µM (inactive) | 35.2 µM | 23.2 µM (inactive) | 42.3 µM (inactive) | 23.4 µM (inactive) | 31.3 µM (inactive) | 36.6 µM (inactive) | 16.4 µM (inactive) | 24.7 µM (inactive) | > 100 µM (inactive) | 25.6 µM (inactive) | 24.6 µM (inactive) | 51.4 µM (inactive) | 71.1 µM (inactive) | 42.1 µM (inactive) | 20.6 µM (inactive) | 20.8 µM (inactive)
4 | O=CNCCCN1CCN(CCCNC=O)CC1 | > 100 µM (inactive) | > 100 µM (inactive) | > 100 µM (inactive) | > 100 µM (inactive) | > 100 µM | > 100 µM (inactive) | > 100 µM (inactive) | > 100 µM (inactive) | > 100 µM (inactive) | 1.6 µM (inactive) | > 100 µM (inactive) | 4.88 µM (inactive) | > 100 µM (inactive) | > 100 µM (inactive) | > 100 µM (inactive) | > 100 µM (inactive) | > 100 µM (inactive) | > 100 µM (inactive) | > 100 µM (inactive) | > 100 µM (inactive)
5 | CC1=C(NC(=O)C(=O)NNC(=O)c2ccncc2)C(=O)c2ccccc2C1=O | 23.8 µM (inactive) | 20 µM (inactive) | 17.3 µM (inactive) | 13.5 µM (inactive) | 12.4 µM | 24.1 µM (inactive) | 20.8 µM (inactive) | 14.2 µM (inactive) | 6.32 µM (inactive) | 12.4 µM (inactive) | 4.08 µM (inactive) | 23.6 µM (inactive) | 17.3 µM (inactive) | 2.3 µM (inactive) | 1.98 µM (inactive) | 28.1 µM (inactive) | 45.2 µM (inactive) | 9.04 µM (inactive) | 2.52 µM (inactive) | 18 µM (inactive)
6 | CCCCOC(=O)/C(CC(=O)C=C(C)C)=N\NS(=O)(=O)c1ccc(C)cc1 | > 100 µM (inactive) | > 100 µM (inactive) | 46.1 µM (inactive) | > 100 µM (inactive) | 62.4 µM | > 100 µM (inactive) | > 100 µM (inactive) | > 100 µM (inactive) | > 100 µM (inactive) | 41.8 µM (inactive) | > 100 µM (inactive) | > 100 µM (inactive) | > 100 µM (inactive) | > 100 µM (inactive) | > 100 µM (inactive) | > 100 µM (inactive) | > 100 µM (inactive) | > 100 µM (inactive) | > 100 µM (inactive) | > 100 µM (inactive)
7 | CC(C)N(C(=O)C12C3C4C1C1C2C3C41C(=O)N(C(C)C)C(C)C)C(C)C (stereo not given) | > 50 µM (inactive) | > 50 µM (inactive) | > 50 µM (inactive) | > 50 µM (inactive) | > 50 µM | > 50 µM (inactive) | > 50 µM (inactive) | > 50 µM (inactive) | > 50 µM (inactive) | > 50 µM (inactive) | > 50 µM (inactive) | > 50 µM (inactive) | > 50 µM (inactive) | > 50 µM (inactive) | > 50 µM (inactive) | > 50 µM (inactive) | > 50 µM (inactive) | > 50 µM (inactive) | > 50 µM (inactive) | > 50 µM (inactive)
8 | [N-]=[N+]=C1C(=O)C2CC3CC(C2)CC1C3 | > 100 µM (inactive) | > 100 µM (inactive) | > 100 µM (inactive) | > 100 µM (inactive) | > 100 µM | > 100 µM (inactive) | > 100 µM (inactive) | > 100 µM (inactive) | > 100 µM (inactive) | > 100 µM (inactive) | > 100 µM (inactive) | > 100 µM (inactive) | > 100 µM (inactive) | > 100 µM (inactive) | > 100 µM (inactive) | > 100 µM (inactive) | > 100 µM (inactive) | > 100 µM (inactive) | > 100 µM (inactive) | > 100 µM (inactive)
9 | COC(=O)C(=O)C(C(=O)C(=O)Nc1cccc(OC)c1)c1nc2ccc(Cl)cc2nc1O (stereo not given) | > 100 µM (inactive) | 12.9 µM (inactive) | > 100 µM (inactive) | 27.6 µM (inactive) | > 100 µM | > 100 µM (inactive) | > 100 µM (inactive) | > 100 µM (inactive) | > 100 µM (inactive) | > 100 µM (inactive) | > 100 µM (inactive) | > 100 µM (inactive) | > 100 µM (inactive) | > 100 µM (inactive) | > 100 µM (inactive) | > 100 µM (inactive) | > 100 µM (inactive) | > 100 µM (inactive) | 89.3 µM (inactive) | > 100 µM (inactive)
10 | C/C=C/[P+](c1ccccc1)(c1ccccc1)c1ccccc1 | 6.58 µM (inactive) | 0.474 µM (active) | 0.101 µM (active) | 0.296 µM (active) | 25.5 µM | 0.0649 µM (active) | 2.42 µM (inactive) | 3.57 µM (inactive) | 2.06 µM (inactive) | 0.836 µM (active) | 0.54 µM (active) | 1.54 µM (inactive) | 1.29 µM (inactive) | 1.82 µM (inactive) | 0.378 µM (active) | 1.42 µM (inactive) | 0.787 µM (active) | 0.102 µM (active) | 1.71 µM (inactive) | 26.7 µM (inactive)
11 | CCOC(=O)[C@]12C3C=CC(C3)C1C(=O)C1OC12 (stereo not given in full) | > 100 µM (inactive) | > 100 µM (inactive) | > 100 µM (inactive) | > 100 µM (inactive) | > 100 µM | > 100 µM (inactive) | > 100 µM (inactive) | > 100 µM (inactive) | > 100 µM (inactive) | > 100 µM (inactive) | > 100 µM (inactive) | > 100 µM (inactive) | > 100 µM (inactive) | > 100 µM (inactive) | > 100 µM (inactive) | > 100 µM (inactive) | > 100 µM (inactive) | > 100 µM (inactive) | > 100 µM (inactive) | > 100 µM (inactive)
12 | CC(=O)OC12CC[N+]3(C)CCCCC3C1=Nc1ccccc12 (stereo not given) | 80.2 µM (inactive) | > 100 µM (inactive) | 61 µM (inactive) | 17.4 µM (inactive) | > 100 µM | > 100 µM (inactive) | > 100 µM (inactive) | > 100 µM (inactive) | > 100 µM (inactive) | > 100 µM (inactive) | > 100 µM (inactive) | > 100 µM (inactive) | > 100 µM (inactive) | > 100 µM (inactive) | > 100 µM (inactive) | > 100 µM (inactive) | > 100 µM (inactive) | > 100 µM (inactive) | > 100 µM (inactive) | > 100 µM (inactive)
13 | CCCCCCCCCCCCCCCCOCC(Cl)CP(=O)(O)OP(=O)(O)OCC1OC(n2cnc3c(N)ncnc32)C(O)C1O (stereo not given) | > 100 µM (inactive) | > 100 µM (inactive) | > 100 µM (inactive) | > 100 µM (inactive) | > 100 µM | > 100 µM (inactive) | > 100 µM (inactive) | > 100 µM (inactive) | > 100 µM (inactive) | > 100 µM (inactive) | > 100 µM (inactive) | > 100 µM (inactive) | > 100 µM (inactive) | > 100 µM (inactive) | > 100 µM (inactive) | > 100 µM (inactive) | > 100 µM (inactive) | 74 µM (inactive) | > 100 µM (inactive) | > 100 µM (inactive)
14 | CC1=C2C(=CC(C)(CO)C2O)C(=O)C(C)(O)C12CC2 (stereo not given) | 0.00716 µM (active) | 0.00201 µM (active) | 0.00353 µM (active) | 0.0103 µM (active) | 0.00197 µM | 0.00279 µM (active) | 0.00156 µM (active) | 0.00492 µM (active) | 0.00203 µM (active) | 0.000776 µM (active) | 0.00493 µM (active) | 0.00114 µM (active) | 0.00425 µM (active) | 0.00148 µM (active) | 0.00108 µM (active) | 0.005 µM (active) | 0.00719 µM (active) | 0.00102 µM (active) | 0.00286 µM (active) | 0.00457 µM (active)
